# Measurements taken from patent US4791215A, “Derivatives of glutamic acid and aspartic acid” (priority 1984, dated 1988).
# Several values for one entry are separate records, joined by “and”; a condition that tells them apart may be missing. Identical values can stand only once.
# Key:
# [1] = test system: morphine analgesia; assay: Increase in analgesia of morphine, Tail Flick Test (Experiment 1); format: in vivo, rats; conditions: for percentage variation of latency of pain sensation / M (10-90) ± SE, mean percentage variation of latency: compound 10 mg/kg i.p. + morphine 2 mg/kg; for M (10-90) ± SE, mean percentage variation of latency: mean 10-90 min; for Power ratio with respect to morphine alone: rat, in vivo
# Summary of the method: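 Non-fasted male rats (150-200 g); a tail point is exposed to a 75 °C heat source and latency to tail movement recorded, 8 s cut-off. Readings taken before and 10, 20, 30, 45, 60 and 90 min after analgesic treatment; percentage variation calculated per animal.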
# [2] = test system: intestinal transit of carbon; assay: Anti-spastic activity, vegetable carbon intestinal transit test; format: in vivo, mice; conditions: Mus musculus, ip; read-out: antispastic activity ED50 (dose reducing intestinal transit of carbon by 50%)
# From the text: The anti-spastic activity which the present compounds exert on the entire digestive system is also notable. Measured in mice with the vegetable carbon test (rate of transit through the stomach and the intestine), this activity is illustrated in the following table.
# claimed administered intraperitoneally in mice. Values
# expressed as the ED 50 in mg/kg, that is the dose which
# reduces the intestinal transit of carbon by 50%
# [3] = test system: CCK-8 induced contraction of guinea pig gall bladder; assay: Anti-CCK-8 activity on gall bladders in situ; format: in vivo
# Description: In order to confirm the evidence of the studies in vitro several of the more interesting compounds were tested in vivo on guinea pig gall baldders in situ.
# The method used is that described by Ljungberg (Svensk. Farm. Tidskr. 68, 351-354, 1964).
# Guinea pigs having a weight of about 400 g, anaesthetised with urethane, were used; the substances under examination were administered intraveneously into the jugular vein.
# The responses of the gall bladders to the substances under test were detected by means of a force transducer and recorded by means of a microdynamometer. The optimum contracting dose was chosen as 10 ng/kg of CCK-8. The antagonist compounds tested were administered in increasing doses so as to enable the calculation of an ED50 value, that is in the dose (in mg/kg i.v.) capable of inhibiting 50% of the contracting effect of 10 ng/kg i.v. of CCK-8.
# The results obtained are given in Table 7 below, which gives the doses used and the effects obtained expressed as a percentage inhibition of the contracting effect of CCK-8 as well as the ED50 found.
# [4] = test system: CCK-8 induced contraction of guinea pig gall bladder; assay: Anti-CCK activity on gall bladder strips in vitro; conditions: CCK-8 10 ng/ml
# Summary of the method: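 Longitudinal guinea pig gall bladder strips in Krebs at 32 °C, gassed with O2/CO2 95:5, were contracted with 10 ng/ml CCK-8. Isometric force was recorded across several compound concentrations, and ED50 was taken as the μg/ml concentration antagonising 50% of the CCK contraction.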
# [5] = test system: biliary flow; assay: Biliary flow (choleretic activity); format: in vivo, rat
# Description: The following experiment was carried out: a cannula was inserted in the bile duct of a rat anaesthetised with urethane, together with a small needle connected to a polythene tube, and the bile liquid was thus collected. The collection was carried out for one hour before the intravenous administration of the tested compounds and for a further two hours after administration, the samples collected at 30 minute intervals being weighed.
# In order to prevent possible dehydration of the animals, 0.5 ml of physiological solution was administered at 30 minute intervals up to a total of 3 ml.
# [6] = test system: tolerance induced by morphine; assay: Antagonism to development of tolerance to repeated morphine HCl, Tail Flick Test (Experiment 5); conditions: compound 10 mg/kg + morphine 5 mg/kg i.p.
# Description: Experiment No. 5: Antagonism of several products of the invention to the development of tolerance induced in rats by the repeated administration of morphine HCl.
# Several of the compounds of the invention were examined to determine their possible capacity to antagonise the development of tolerance induced by morphine. Groups of 6 male rats having a weight of about 200-250 grams were used.
# At intervals of 24 hours from the first treatment (time 0) each animal (except the control group treated physiologically) received 5 mg/kg of morphine hydrochloride i.p. together with 10 mg/kg i.p. of the compounds indicated (with the exception of the group treated solely with morphine).
# The determination of the pain threshold was effected 15', 30', 45' and 60' from the treatment by the Tail Flick Test.
# [7] = test system: endogenous opiates analgesia; assay: Analgesic activity of endogenous opiates released by transcutaneous shock, Tail Flick Test (Experiment 3); format: in vivo, rats
# Description: Experiment No. 3: Influence of several of the compounds of the invention on the analgesic activities of endogenous opiates released by transcutaneous shock in rats and measured by the Tail Flick Test
# The method is that described by Lewis et al. J. Neurosc. 1, 358 […]. Male rats which have not fasted and have a weight of about 200 g are used.
# The animals are stressed by the application of a 60 Hz-2.5 mA current to the front leg in pulses of a duration of 1 second every 5 seconds for 20 minutes.
# This stress regime induces the release of endogenous opiates.
Structure (SMILES),percentage variation of latency of pain sensation ([1]; 10') [%],percentage variation of latency of pain sensation ([1]; 20') [%],percentage variation of latency of pain sensation ([1]; 30') [%],percentage variation of latency of pain sensation ([1]; 45') [%],percentage variation of latency of pain sensation ([1]; 60') [%],percentage variation of latency of pain sensation ([1]; 90') [%],"M (10-90) ± SE, mean percentage variation of latency [1] [%]",Power ratio with respect to morphine alone [1],ED50 [2] [mg/kg],ED50 (concentration antagonising 50% of contracting effect of CCK-8) [4] [µg/mL],other results
CCCCc1ccc(C(=O)NC(CCC(=O)O)C(=O)N(CCC)CCC)cc1 (stereo not drawn) [Compound C-37],27.6 ± 13,45.8 ± 18,55.0 ± 16,51.1,23.4 ± 21,12.4 ± 13,35.9 ± 17,1.20,160,,
CCCN(CCC)C(=O)C(CCC(=O)O)NC(=O)c1cc(C)cc(C)c1 (stereo not drawn) [Compound C-31],28.9 ± 17,43.3 ± 25,54.7 ± 22,68.0 ± 22,57.4 ± 16,49.5 ± 19,50.4 ± 14,1.69,,22.9,"percentage inhibition of contracting effect of CCK-8 ([3]; 30 mg/kg i.v., single experiments): 82.1% and 92.5% and 58.7%; ED50 ([3]; Cavia porcellus, iv, CCK-8 10 ng/kg i.v., read-out: ED50 (inhibition of 50% of contracting effect of CCK-8)): 16.3 mg/kg"
CCCCCCNC(=O)C(CCC(=O)O)NC(=O)c1ccc(C)c(C)c1 (stereo not drawn) [Compound C-46],14.7 ± 9,60.0 ± 18,28.0 ± 5,55.2 ± 20,30.2 ± 17,12.2 ± 11,32.9 ± 21,1.10,66.9,,
CCCCN(CCCC)C(=O)C(CCC(=O)O)NC(=O)c1ccc(I)cc1 (stereo not drawn) [Compound C-27],52.3 ± 13.0,81.4,90.2 ± 7.0,85.9 ± 10.0,60.3 ± 15.0,50.3 ± 13.0,70.0 ± 17.8,2.35,40.3,10.2,
N#Cc1cccc(C(=O)NC(CCC(=O)N2CCCCC2)C(=O)O)c1 [Compound D-11],25.3 ± 7.0,68.3,74.8 ± 18.0,82.8 ± 17.0,86.2 ± 14.0,77.5 ± 13.0,69.1,2.32,,> 200,"% increase in biliary flow with respect to controls ([5]; 12.5 mg/kg i.v.): +33.7%; % increase in biliary flow with respect to controls ([5]; 25 mg/kg i.v.): +80.0%; % increase in biliary flow with respect to controls ([5]; 50 mg/kg i.v.): +118.8%; ED50 ([5]; Rattus norvegicus, iv, average over 2 hours, read-out: ED50 (dose causing 50% increase in biliary flow)): 18.5 mg/kg"
CCCCN(CCCC)C(=O)CCC(NC(=O)c1ccc(C#N)cc1)C(=O)O [Compound D-8],29.0 ± 15.0,50.9,61.4 ± 22.0,57.7 ± 18.0,52.9 ± 20.0,28.3 ± 12.0,46.7 ± 14.4,1.56,,> 200,percentage variation in latency time (Effect %) ([6]; 24 h): 43.65%; percentage variation in latency time (Effect %) ([6]; 48 h): 32.80%; percentage variation in latency time (Effect %) ([6]; 72 h): 31.78%; percentage variation in latency time (Effect %) ([6]; 96 h): 35.45%; percentage variation in latency time (Effect %) ([6]; 120 h): 42.08%; percentage variation in latency time (Effect %) ([6]; 144 h): 29.33%; percentage variation in latency time (Effect %) ([6]; 168 h): 19.17%; percentage variation in latency time (Effect %) ([6]; time 0): 47.32%
CCCN(CCC)C(=O)C(CCC(=O)O)NC(=O)c1cccc(C)c1 (stereo not drawn) [Compound C-28],15.7 ± 10,66.8 ± 18,68.3 ± 20,68.4 ± 17,74.5 ± 11,27.5 ± 15,53.5 ± 25,1.80,91.8,> 300,
CCCN(CCC)C(=O)C(CCC(=O)O)NC(=O)c1ccc(CC)cc1 (stereo not drawn) [Compound C-34],19.6 ± 23,59 ± 17,85.5 ± 10,78.4 ± 16,67 ± 20,59.1,60.6 ± 23,2.03,65.5,40.1,"average latency, Tail Flick ([7]; compound 1 mg/kg iv + stress, 5'): 5.40 ± 0.35 s; average latency, Tail Flick ([7]; compound 1 mg/kg iv + stress, 10'): 4.9 ± 0.25 s; average latency, Tail Flick ([7]; compound 1 mg/kg iv + stress, 15'): 3.4 ± 0.16 s; average latency, Tail Flick ([7]; compound 3 mg/kg iv + stress, 5'): 6.56 ± 0.33 s; average latency, Tail Flick ([7]; compound 3 mg/kg iv + stress, 10'): 5.58 ± 0.31 s; average latency, Tail Flick ([7]; compound 3 mg/kg iv + stress, 15'): 3.98 ± 0.32 s"
CCCc1ccc(C(=O)NC(CCC(=O)O)C(=O)N(CC)CC)cc1 (stereo not drawn) [Compound C-41],32.1 ± 18,60.0 ± 22,40.0 ± 17,46.7 ± 23,11.5,7.4 ± 20,32.9 ± 20,1.10,182,,
CCCCN(CCCC)C(=O)CCC(NC(=O)c1cccc(C#N)c1)C(=O)O [Compound D-5],72.2,92.5 ± 7.0,95.3 ± 5.0,96.0 ± 4.0,74.3 ± 11.0,75.5,84.3 ± 11.4,2.83,74.9,> 200,
